Reference: ChEMBL document CHEMBL1159359, “A new phytotoxic nonenolide from Phoma herbarum” (J Nat Prod, 2003)
Active and inactive are the calls of the source. The calls are words filed in the database; no cut-off is given here.

Key:
[1] = Inhibition of bovine brain calmodulin-dependent cyclic nucleotide phosphodiesterase after 30 min; design: species or system Bos taurus
[2] = tested on: Amaranthus hypochondriacus; test: Phytotoxicity against Amaranthus hypochondriacus seedlings assessed as inhibition of radical growth at 28 degC by petri dish assay; assay type: functional, organism-based
Calmodulin (Bos taurus) = Calmodulin (Bos taurus) (UniProt P62157); test: Binding affinity to bovine brain calmodulin assessed as decrease in electrophoretic mobility at 0.033 ug/ml for 1.5 hrs by SDS-PAGE in presence of Ca2+ ions

| IC50 [1] [µM] | Activity (Calmodulin (Bos taurus)) | Compound | IC50 [2] [µM] |
| --- | --- | --- | --- |
| 9.8 | – | CN(C)CCCN1c2ccccc2Sc2ccc(Cl)cc21 [CHLORPROMAZINE] | – |
| – | Active | CCC[C@@H]1C[C@@H](O)/C=C/CCCC(=O)O1 [HERBARUMIN III] | 20 |
| – | – | O=C(O)COc1ccc(Cl)cc1Cl [2,4-DICHLOROPHENOXYACETIC ACID] | 200 |
| 14.2 | Active | CCC[C@H]1OC(=O)CCC/C=C/[C@H](O)[C@@H]1O [HERBARUMIN I] | – |
| 6.6 | Active | CCC[C@H]1OC(=O)[C@H](O)CC/C=C/[C@H](O)[C@@H]1O [HERBARUMIN II] | – |
